The values below come from ChEMBL document CHEMBL5338816, “Discovery of Dimethyl Shikonin Oxime 5a, a Potent, Selective Bombesin Receptor Subtype-3 Agonist for the Treatment of Type 2 Diabetes Mellitus” (J Med Chem, 2023).

SMILES strings stand for the structures. The source made the active and inactive calls. No cut-off for these calls is given here.

Data set [1] deals with T1, Bombesin receptor subtype-3 (Homo sapiens, UniProt P32247).
T1 sequence (P32247 whole entry): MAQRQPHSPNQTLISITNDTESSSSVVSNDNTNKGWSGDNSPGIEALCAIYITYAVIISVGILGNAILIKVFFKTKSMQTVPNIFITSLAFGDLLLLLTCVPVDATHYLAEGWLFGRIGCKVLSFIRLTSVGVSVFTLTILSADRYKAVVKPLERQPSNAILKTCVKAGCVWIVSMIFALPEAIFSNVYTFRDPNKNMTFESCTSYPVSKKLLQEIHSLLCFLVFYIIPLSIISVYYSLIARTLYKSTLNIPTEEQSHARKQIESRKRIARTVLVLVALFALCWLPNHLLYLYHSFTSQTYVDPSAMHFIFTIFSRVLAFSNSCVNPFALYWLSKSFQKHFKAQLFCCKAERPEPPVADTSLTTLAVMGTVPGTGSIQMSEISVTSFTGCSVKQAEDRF
The data set can be described thus: Agonist activity at human BB3 stably overexpressed in human NCI-H1299 cells assessed as increase in IP-1 accumulation incubated for 60 mins by HTRF assay. The data set is classed as functional, cell-based.

The subject of the next data set is HEK293T. The data set can be described thus: Agonist activity at human BB3 in human HEK293T cells assessed as increase in intracellular calcium response at 10 uM and measured for 3 mins by FLIPR calcium 6 assay. The data set is classed as cell-based.
Data set [2] has as its target T1, Bombesin receptor subtype-3. The data set can be described thus: Agonist activity at human BB3 stably overexpressed in human NCI-H1299 cells assessed as increase in intracellular calcium response and measured for 3 mins by FLIPR calcium 6 assay. The format is functional, cell-based. (In general: A change in cytosolic calcium serves as a functional read-out for many receptors and channels.)

The subject of data set [3] is Mus musculus. As to the kind of experiment: Antidiabetic activity in fourteen hour fasted type 2 diabetic db/db mouse assessed as increase in PPRE expression in white adipose tissue at 10 mg/kg, po for 4 weeks by Western blot analysis. The format is functional, organism-based. Background: In western blotting, separated proteins are transferred to a membrane and probed.

For data set [4], the target named is T2, Bombesin receptor subtype-3 (Rattus norvegicus, UniProt Q8K418).
T2 sequence (Q8K418 whole entry): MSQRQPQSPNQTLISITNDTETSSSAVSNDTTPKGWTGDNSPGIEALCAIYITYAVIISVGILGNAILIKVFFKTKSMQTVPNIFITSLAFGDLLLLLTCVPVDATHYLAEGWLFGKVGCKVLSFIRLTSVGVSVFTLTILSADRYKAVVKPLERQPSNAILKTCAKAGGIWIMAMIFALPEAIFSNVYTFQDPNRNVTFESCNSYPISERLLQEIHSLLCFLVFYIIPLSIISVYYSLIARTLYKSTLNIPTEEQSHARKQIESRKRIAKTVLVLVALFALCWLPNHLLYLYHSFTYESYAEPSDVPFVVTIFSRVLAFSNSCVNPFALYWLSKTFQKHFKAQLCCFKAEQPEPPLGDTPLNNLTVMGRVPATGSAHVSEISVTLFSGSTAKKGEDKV
As to the kind of experiment: Agonist activity at rat BB3 transiently expressed in human HEK293T cells assessed as increase in IP-1 accumulation incubated for 60 mins by HTRF assay. The format is functional, cell-based. In general terms: In TR-FRET formats the signal depends on donor and acceptor labels being close together.

Data set [5] has as its system Mus musculus. The data set can be described thus: Antidiabetic activity in fourteen hour fasted type 2 diabetic db/db mouse assessed as decrease in HOMA-IR level at 10 mg/kg,po for 4 weeks. The format is functional, organism-based.
Data set [6] has as its system Mus musculus. As to the kind of experiment: Antidiabetic activity in fourteen hour fasted type 2 diabetic db/db mouse assessed as reduction of blood glucose excursion at 10 mg/kg,po for 2 weeks followed by […] and measured upto 120 mins by OGTT. The data set is classed as functional, organism-based.
Data set [7] has as its target T3, Bombesin receptor subtype-3 (Mus musculus, UniProt O54798).
T3 sequence (O54798 whole entry): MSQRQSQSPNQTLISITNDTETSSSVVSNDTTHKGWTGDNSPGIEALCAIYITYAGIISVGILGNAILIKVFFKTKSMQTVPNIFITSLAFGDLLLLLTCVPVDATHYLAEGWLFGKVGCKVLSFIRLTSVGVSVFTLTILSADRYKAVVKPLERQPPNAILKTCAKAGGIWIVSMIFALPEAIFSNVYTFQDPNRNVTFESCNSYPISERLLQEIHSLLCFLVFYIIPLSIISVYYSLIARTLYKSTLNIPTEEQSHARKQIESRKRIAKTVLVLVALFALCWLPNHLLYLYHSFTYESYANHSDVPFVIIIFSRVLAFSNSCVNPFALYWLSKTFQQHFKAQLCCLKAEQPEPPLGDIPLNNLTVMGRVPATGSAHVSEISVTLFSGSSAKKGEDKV
The data set can be described thus: Agonist activity at endogenous mouse BB3 in mouse B16 cells assessed as increase in IP-1 accumulation incubated for 60 mins by HTRF assay. The format is functional, cell-based.

The subject of data set [8] is Mus musculus. The data set can be described thus: Antidiabetic activity in five hrs fasted BB3 knockout C57BL/6 mouse assessed as reduction in blood glucose level at 30 mg/kg,po pretreated with compound for 30 mins and followed by […] and measured upto 120 mins by OGTT. The format is functional, organism-based. Conditions: time 150.0 min.
Data set [9] concerns Mus musculus. As to the kind of experiment: Antidiabetic activity in five hrs fasted wild type C57BL/6 mouse assessed as reduction in blood glucose level at 3 to 30 mg/kg,po pretreated with compound for 30 mins and followed by […] and measured upto 120 mins by OGTT. The data set is classed as functional, organism-based. Conditions: dose upper 30.0 mg/kg, time 150.0 min.

Data set [10] deals with T3, Bombesin receptor subtype-3. As to the kind of experiment: Agonist activity at mouse BB3 stably overexpressed in human HEK cells assessed as increase in IP-1 accumulation incubated for 60 mins by HTRF assay. The format is functional, cell-based.
The test system of data set [11] is Mus musculus. The data set can be described thus: Antidiabetic activity in fourteen hour fasted type 2 diabetic db/db mouse assessed as decrease in ALT level at 10 mg/kg,po for 4 weeks by BS-360S analyzer. The format is functional, organism-based.
Data set [12] can be described thus: Drug concentration in […] mouse cerebrospinal fluid at 50 mg/kg,po and measured upto 480 mins by LC-MS/MS analysis. The data set is classed as ADME, organism-based. As to conditions: read-out: Ct.
The target in data set [13] is T3, Bombesin receptor subtype-3. As to the kind of experiment: Agonist activity at mouse BB3 stably overexpressed in human HEK cells assessed as increase in intracellular calcium response and measured for 3 mins by FLIPR calcium 6 assay. The format is functional, cell-based.
Data set [14] is described as follows: Dissociation constant, pKa of the compound. The data set is classed as physicochemical.
Data set [15] addresses T1, Bombesin receptor subtype-3. As to the kind of experiment: Agonist activity at human BB3 transiently expressed in human HEK293T cells assessed as increase in IP-1 accumulation incubated for 60 mins by HTRF assay.
The test system of data set [16] is Mus musculus. As to the kind of experiment: Antidiabetic activity in fourteen hour fasted type 2 diabetic db/db mouse assessed as decrease in gamma-GT level at 10 mg/kg,po for 4 weeks by BS-360S analyzer. The format is functional, organism-based.
Data set [17] has as its system Mus musculus. As to the kind of experiment: Antidiabetic activity in fourteen hour fasted type 2 diabetic db/db mouse assessed as decrease in fasting blood glucose level at 10 mg/kg,po for 4 weeks by Glucose analyzer. The format is functional, organism-based.
In data set [18] the target is T4, Neuromedin-B receptor (Homo sapiens, UniProt P28336). As to the kind of experiment: Agonist activity at human BB1 in human HEK293T cells assessed as increase in intracellular calcium response at 10 uM and measured for 3 mins by FLIPR calcium 6 assay. The format is functional, cell-based.
Target sequence in this assay (P28336 whole entry, looked up): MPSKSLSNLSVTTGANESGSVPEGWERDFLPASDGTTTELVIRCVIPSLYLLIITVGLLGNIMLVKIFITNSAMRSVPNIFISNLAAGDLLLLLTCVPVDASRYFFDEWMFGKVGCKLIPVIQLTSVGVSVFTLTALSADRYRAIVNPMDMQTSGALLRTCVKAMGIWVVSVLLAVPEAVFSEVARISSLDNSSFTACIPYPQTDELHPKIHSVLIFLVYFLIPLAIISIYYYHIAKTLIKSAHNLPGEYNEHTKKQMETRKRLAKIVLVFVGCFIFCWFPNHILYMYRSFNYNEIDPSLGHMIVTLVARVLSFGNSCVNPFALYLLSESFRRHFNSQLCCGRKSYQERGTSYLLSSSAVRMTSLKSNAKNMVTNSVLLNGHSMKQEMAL
In data set [19] the test system is Mus musculus. As to the kind of experiment: Antidiabetic activity in fourteen hour fasted type 2 diabetic db/db mouse assessed as decrease in glycosylated serum protein at 10 mg/kg,po for 4 weeks. The format is functional, organism-based.
The nature of data set [20]: Agonist activity at human BB3 in human HEK293T cells assessed as increase in intracellular calcium response and measured for 3 mins by FLIPR calcium 6 assay. Conditions: HEK-293T, 0.05 h. The data set is classed as cell-based.
Data set [21] deals with T4, Neuromedin-B receptor. As to the kind of experiment: Agonist activity at human BB1 in human HEK293T cells assessed as increase in intracellular calcium response and measured for 3 mins by FLIPR calcium 6 assay. The format is functional, cell-based.
Target sequence in this assay (P28336 whole entry): as the sequence (P28336 whole entry, looked up) above

By EC50 is commonly meant the concentration that produces a half-maximal response. Regarding `C=CC(C)(C)C(OC(=O)c1cccnc1)c1cc(OC)c2c(c1OC)/C(=N/O)C=C/C2=N\O` (centres undefined), the EC50 in [1] was 15.7 nM.
The same measure, in the same setting: under `C=CC(C)(C)C(OCCCO)c1cc(OC)c2c(c1OC)/C(=N/O)C=C/C2=N\O` (centres undefined) stands greater than 10000 nM; under `C=CC(C)(C)C(OCCCCCO)c1cc(OC)c2c(c1OC)/C(=N/O)C=C/C2=N\O` (centres undefined), 776 nM.
In general, pKa refers to the pH at which an ionisable group is half protonated. High values mean a group that holds its proton tightly, low ones a group that gives up its proton readily. As for `C=CC(C)(C)C(OC(=O)c1ccco1)c1cc(OC)c2c(c1OC)/C(=N/O)C=C/C2=N\O` (centres undefined), the result in the data set with HEK293T, with Mus musculus [8] and at Neuromedin-B receptor [18] was inactive. In addition, the EC50 was 10.9 nM in data set [2]; 6.11 nM in data set [4]; 3.78 nM in [1]; 0.44 nM in data set [7]; 54.7 nM in data set [10]; 67 nM in [13]. Moreover, the EC50 in data set [15] was 149 nM. The result in the data set on Mus musculus [3], in the data set with Mus musculus [5], in the data set with Mus musculus [6], with Mus musculus [11], in the data set with Mus musculus [16] and in the data set with Mus musculus [17] was Active. Also, the result in the data set on Mus musculus [19] was Active. Besides, the Activity entry in the data set with Mus musculus [9] was “Dose-Dependent Effect”. For the same compound, in [12], the concentration at 8 h was less than 0.05 ng/mL. In data set [14], the pKa was greater than 10.2.
In the case of `C=CC(C)(C)C(OC(=O)c1ccccn1)c1cc(OC)c2c(c1OC)/C(=N/O)C=C/C2=N\O` (centres undefined), the EC50 in [1] was 14.7 nM.
The same measure, in the same setting: under `COc1cc(C(CC=C(C)C)OC(=O)CC(C)C)c(OC)c2c1/C(=N/O)C=C/C2=N\O` (centres undefined) stands 822 nM; under `C=CC(C)(C)C(OC(=O)c1ccc(C=O)cc1)c1cc(OC)c2c(c1OC)/C(=N/O)C=C/C2=N\O` (centres undefined), 311 nM.
On the same count and under the same terms, as for `COc1cc(C(CC=C(C)C)OCCC(C)C)c(OC)c2c1/C(=N/OC(=O)c1ccccc1)C=C/C2=N\OC(=O)c1ccccc1` (centres undefined), the figure is greater than 10000 nM.
For the compound `O[C@@](Cc1nc(CC2(C(F)(F)F)CC2)c[nH]1)(c1ccc(-n2cccn2)cc1)C(F)(F)F`, the EC50 was 0.293 nM in [2]; 0.211 nM in data set [1]; 13.5 nM in [7]; 0.421 nM in data set [10]; 2.99 nM in data set [13].
Consider `CCCC[C@H](NC(=O)[C@H](Cc1ccccc1)NC(=O)[C@H](Cc1c[nH]cn1)NC(=O)CNC(=O)[C@@H](NC(=O)[C@H](C)NC(=O)[C@H](Cc1c[nH]c2ccccc12)NC(=O)[C@H](CCC(N)=O)NC(=O)[C@H](N)Cc1ccccc1)C(C)C)C(N)=O`, for which the 50% effective concentration (EC50) was 0.405 nM in [20] and 0.155 nM at Neuromedin-B receptor [21].
Consider `C=CC(C)(C)C(OC(=O)c1cncc(F)c1)c1cc(OC)c2c(c1OC)/C(=N/O)C=C/C2=N\O` (centres undefined), for which the EC50 in data set [1] was 60 nM.
`COc1cc(C(O)CC=C(C)C)c(OC)c2c1/C(=N/O)C=C/C2=N\O` (centres undefined): the EC50 was 2380 nM in data set [2], 3400 nM in data set [1], 624 nM in data set [10] and 780 nM in data set [13].
Consider `C=CC(C)(C)C(OC(=O)c1cccnc1Br)c1cc(OC)c2c(c1OC)/C(=N/O)C=C/C2=N\O` (centres undefined), for which the EC50 in [1] was 101 nM.
On the same count and under the same terms, as for `C=CC(C)(C)C(OC(=O)c1ccncc1)c1cc(OC)c2c(c1OC)/C(=N/O)C=C/C2=N\O` (centres undefined), the figure is 277 nM; as for `C=CC(C)(C)C(OC(C)=O)c1cc(OC)c2c(c1OC)/C(=N/O)C=C/C2=N\O` (centres undefined), greater than 1000 nM.
The same measure, in the same setting: as for `C=CC(C)(C)C(OC(=O)c1ccccc1)c1cc(OC)c2c(c1OC)/C(=N/O)C=C/C2=N\O` (centres undefined), the figure is 4.79 nM; as for `C=CC(C)(C)C(OCCCCO)c1cc(OC)c2c(c1OC)/C(=N/O)C=C/C2=N\O` (centres undefined), 226 nM; as for `C=CC(C)(C)C(OC(=O)c1ccc(C)cc1)c1cc(OC)c2c(c1OC)/C(=N/O)C=C/C2=N\O` (centres undefined), 81.7 nM.
On the same count and under the same terms, under `C=CC(C)(C)C(OC(=O)C1CCCO1)c1cc(OC)c2c(c1OC)/C(=N/O)C=C/C2=N\O` (centres undefined) stands 135 nM; under `C=CC(C)(C)C(O)c1cc(OC)c2c(c1OC)/C(=N/O)C=C/C2=N\O` (centres undefined), greater than 10000 nM.
For `C=CC(C)(C)C(OC(=O)CC(C)C)c1cc(OC)c2c(c1OC)/C(=N/O)C=C/C2=N\O` (centres undefined), the EC50 in data set [1] is 52.5 nM.
The same measure, in the same setting: as for `COc1cc(C(CC=C(C)C)OCCC(C)C)c(OC)c2c1/C(=N/O)C=C/C2=N\O` (centres undefined), the figure is 520 nM.
